System: NKI2 TCR-transduced peripheral blood lymphocytes
Assay: IFNγ production by NKI2-transduced lymphocytes with peptide-loaded JY cells
Format: cell-based, human
Settings: NKI2 transduced T cells

For ALDSRSEHFM, the “potency of stimulation relative to CDK4 neoantigen ALDPHSGHFV” value was “as potently as the CDK4 neoantigen”.
